Measured values: PubChem BioAssay AID2060893 (Molecular Pharmacology Branch, DTP, NCI, 2025)

Tested on: K86415-001-R-J1-PDC complex spheroids, viability
Assay: Anticancer human tumor K86415-001-R-J1-PDC patient-derived lung adenocarcinoma cell line growth inhibition [RAS]
Details: for IC50: curve of first compound; for viability, T/C: stronger effect = lower value
Description: RAS pathway inhibitors in Combinations in Complex Spheroids
A high-throughput screen of multi-cell type tumor spheroids was designed to identify active combinations of RAS pathway inhibitors and targeted small molecules. Complex spheroids include a stromal component modeled by human endothelial cells (HUVEC) and fibroblasts modeled by human mesenchymal stem cells (MSCs). The concentration ranges selected for each drug and investigational agent were based upon clinically achievable concentrations if the clinical Cmax of the agent was known.
Compounds. The drugs and investigational agents: abemaciclib (NSC768073), cobimetinib (NSC768068), divarasib (GDC6063, NSC841802), docetaxel (NSC628503), GDC-1971 (RLY-1971, NSC841576), gemcitabine (NSC613327), inavolisib (NSC800729), ipatasertib (NSC767898), KB-0742 (NSC834161), MRTX-1133 (NSC836407), osimertinib (NSC779217), RMC-4630 (NSC839698), RMC-6236 (NSC851965), RMC-6291 (NSC852671), Ro-3306 (NSC812927), sapanisertib (NSC764658), SN-38 (NSC673596), staurosporine (NSC755774), SY5609 (NSC837396), and tovorafenib (DAY101, NSC766906), were obtained from the National Cancer Institute (NCI) Developmental Therapeutics Program Chemical Repository. The FDA-approved anticancer drug set is available from the NCI Developmental Therapeutics Program. […] The stock solutions were prepared in dimethyl sulfoxide (DMSO, Sigma-Aldrich, St. Louis, MO, cat. D2650) at 800-fold the tested concentration and stored at -70 degrees C prior to their use. All drugs and investigational agents were tested over a range starting from a high concentration at or near the clinical Cmax and decreasing in half-log increments. If the clinical Cmax for an agent had not been determined, the highest concentration tested was 10 microM.
Cell Culture. All cells were maintained in an incubator at 37 degrees C and 5% CO2 with 95% humidity. The PDC lines were cultured according to standard operating procedures established by the NCI PDMR. All PDCs were thawed and cultured in Matrigel-coated flasks prepared with a working solution of 1X Ham's F-12 nutrient mix, without supplementation (Invitrogen, Waltham, MA, cat. 11765054), 100 U/mL penicillin-streptomycin (Invitrogen, cat. 15140122), and 2.5% Matrigel (Corning Inc., Corning, NY, cat. 354248) for the first three passages. The 362531-283-R-J2-PDC and 782815-120-R-J1-PDC lines were cultured in 6C/Colon 1B media, which includes advanced DMEM/F-12 (Thermo Fisher Scientific, cat. 12634028), 10 mM HEPES (Thermo Fisher Scientific, cat. 15630080), 1X GlutaMAX supplement (Thermo Fisher Scientific, cat. 35050061), 0.1 mg/mL primocin (InvivoGen, San Diego, CA, cat. ant-pm-2), 10% defined fetal bovine serum, heat inactivated (HyClone Laboratories Inc., Logan, UT, cat. SH30070.03HI), 50% L-WRN conditioned media (ATCC, cat. CRL-3276), 1.25 mM N-Acetyl-L-cysteine (Sigma-Aldrich, cat. A9165), 10 mM nicotinamide (Sigma-Aldrich, cat. N0636), 1X B-27 supplement (Thermo Fisher Scientific, cat. 17504044), 1X N-2 supplement (Thermo Fisher Scientific, cat. 17502048), 50 ng/mL human EGF (Thermo Fisher Scientific, cat. PHG0311), and 10 microM Y-27632 dihydrochloride (Tocris Bioscience, cat. 1254). The K12877-001-R-J1-PDC line was cultured in 6I media, which includes all 6C/Colon 1B media plus 10 ng/mL human FGF-10 (PeproTech, cat. 100-26), 1 ng/mL human FGF-2 (PeproTech, cat. 100-18B), 1 µM prostaglandin E2 (Tocris Bioscience, cat. 2296), […] hydrocortisone (Sigma-Aldrich, cat. H4001), and […] bovine insulin (Sigma-Aldrich, cat. I6634). The K86415-001-R-J1-PDC line was cultured in 6D media, which includes all 6C/Colon 1B media components minus the L-WRN conditioned media. The 485176-168-R4-J1-PDC was cultured in PANC media, which includes all 6C/Colon 1B media plus 100 ng/mL human FGF-10 (PeproTech, cat. 100-26), 500 nM SB-431542 (Selleckchem, cat. S1067), and 10 nM gastrin (Tocris Bioscience, cat. 3006). […]
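Note: spheroids exposed to agents for seven days before readout.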

Q: Which results are given for `CC(=O)OC12COC1CC(O)C1(C)C(=O)C(O)C3=C(C)C(OC(=O)C(O)C(NC(=O)OC(C)(C)C)c4ccccc4)CC(O)(C(OC(=O)c4ccccc4)C21)C3(C)C` (configuration not stated) + C#Cc1c(F)ccc2cc(O)cc(-c3ncc4c(N5CC6CCC(C5)N6)nc(OCC56CCCN5CC(F)C6)nc4c3F)c12?
A: IC50 (second compound 0.0316 µM): < 31.6 nM; IC50 (second compound 0.1 µM): < 31.6 nM; IC50 (second compound 0.316 µM): < 31.6 nM; IC50 (second compound 1 µM): < 31.6 nM; IC50 (second compound 3.16 µM): < 31.6 nM; IC50 (second compound 10 µM): < 31.6 nM; viability, T/C (second compound 0.0316 µM, first compound 0.0316 µM): 29.3%; viability, T/C (second compound 0.0316 µM, first compound 0.1 µM): 30.7%; viability, T/C (second compound 0.0316 µM, first compound 0.316 µM): 32.6%; viability, T/C (second compound 0.0316 µM, first compound 1 µM): 30.9%; viability, T/C (second compound 0.0316 µM, first compound 3.16 µM): 37.5%; viability, T/C (second compound 0.0316 µM, first compound 10 µM): 35.7%; viability, T/C (second compound 0.1 µM, first compound 0.0316 µM): 30.8%; viability, T/C (second compound 0.1 µM, first compound 0.1 µM): 34.4%; viability, T/C (second compound 0.1 µM, first compound 0.316 µM): 28.6%; viability, T/C (second compound 0.1 µM, first compound 1 µM): 32%; viability, T/C (second compound 0.1 µM, first compound 3.16 µM): 26.8%; viability, T/C (second compound 0.1 µM, first compound 10 µM): 37%; viability, T/C (second compound 0.316 µM, first compound 0.0316 µM): 32.2%; viability, T/C (second compound 0.316 µM, first compound 0.1 µM): 29.9%; viability, T/C (second compound 0.316 µM, first compound 0.316 µM): 27.4%; viability, T/C (second compound 0.316 µM, first compound 1 µM): 28.9%; viability, T/C (second compound 0.316 µM, first compound 3.16 µM): 29.2%; viability, T/C (second compound 0.316 µM, first compound 10 µM): 28.8%; viability, T/C (second compound 1 µM, first compound 0.0316 µM): 34.2%; viability, T/C (second compound 1 µM, first compound 0.1 µM): 33.9%; viability, T/C (second compound 1 µM, first compound 0.316 µM): 28.7%; viability, T/C (second compound 1 µM, first compound 1 µM): 32.6%; viability, T/C (second compound 1 µM, first compound 3.16 µM): 25.9%; viability, T/C (second compound 1 µM, first compound 10 µM): 26.7%; viability, T/C (second compound 3.16 µM, first compound 0.0316 µM): 23.9%; viability, T/C (second compound 3.16 µM, first compound 0.1 µM): 26.8%; viability, T/C (second compound 3.16 µM, first compound 0.316 µM): 27.1%; viability, T/C (second compound 3.16 µM, first compound 1 µM): 26.5%; viability, T/C (second compound 3.16 µM, first compound 3.16 µM): 29.4%; viability, T/C (second compound 3.16 µM, first compound 10 µM): 24.5%; viability, T/C (second compound 10 µM, first compound 0.0316 µM): 20.1%; viability, T/C (second compound 10 µM, first compound 0.1 µM): 19.1%; viability, T/C (second compound 10 µM, first compound 0.316 µM): 19.5%; viability, T/C (second compound 10 µM, first compound 1 µM): 19.3%; viability, T/C (second compound 10 µM, first compound 3.16 µM): 18.2%; viability, T/C (second compound 10 µM, first compound 10 µM): 15.3%
